Experimental data published in ChEMBL document CHEMBL2040761, “Design, synthesis, and evaluation of indanone derivatives as acetylcholinesterase inhibitors and metal-chelating agents” (Bioorg Med Chem Lett, 2012).
The source made the active and inactive calls. The rule behind the calls is not given here.

Assays:
Acetylcholinesterase = Acetylcholinesterase (Electrophorus electricus, UniProt O42275)
Description: Inhibition of electric eel acetylcholine esterase using acetylcholine chloride as substrate incubated for 15 mins prior to substrate addition measured every 1 min by Ellman's assay

Cholinesterase = Cholinesterase (Equus caballus, UniProt P81908)
Description: Inhibition of equine serum butyrylcholinesterase using butyrylthiocholine chloride as substrate incubated for 15 mins prior to substrate addition measured every 1 min by Ellman's assay

[1] = molecular target: Acetylcholinesterase (Electrophorus electricus) (UniProt O42275); assay: Mixed-type inhibition of electric eel acetylcholine esterase using acetylcholine chloride as substrate at 0.001 to 0.003 uM incubated for 15 mins by Lineweaver Burk plot analysis
Acetylcholinesterase (Electrophorus electricus), sequence (O42275 24-633 limits assumed): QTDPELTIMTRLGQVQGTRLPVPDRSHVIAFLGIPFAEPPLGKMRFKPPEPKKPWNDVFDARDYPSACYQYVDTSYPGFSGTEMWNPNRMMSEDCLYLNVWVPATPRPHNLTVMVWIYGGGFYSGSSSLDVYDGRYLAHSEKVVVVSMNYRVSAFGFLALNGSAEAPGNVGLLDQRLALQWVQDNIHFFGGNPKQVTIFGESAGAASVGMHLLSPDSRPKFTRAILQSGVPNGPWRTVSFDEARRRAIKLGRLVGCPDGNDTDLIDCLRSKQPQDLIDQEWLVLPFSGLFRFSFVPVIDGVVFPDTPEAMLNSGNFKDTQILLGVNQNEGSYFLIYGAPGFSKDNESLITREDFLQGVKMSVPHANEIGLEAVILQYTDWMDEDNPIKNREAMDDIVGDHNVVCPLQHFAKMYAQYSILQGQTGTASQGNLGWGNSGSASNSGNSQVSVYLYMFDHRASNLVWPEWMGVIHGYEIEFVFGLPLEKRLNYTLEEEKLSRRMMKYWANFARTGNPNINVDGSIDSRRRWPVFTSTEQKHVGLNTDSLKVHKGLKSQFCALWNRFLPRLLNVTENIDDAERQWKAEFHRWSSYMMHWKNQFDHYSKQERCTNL

[2] = molecular target: Acetylcholinesterase (Electrophorus electricus) (UniProt O42275); assay: Ratio of tacrine IC50 to compound IC50 for electric eel acetylcholine esterase
[3] = molecular target: Acetylcholinesterase (Electrophorus electricus) (UniProt O42275); assay: Ratio of donepezil IC50 to compound IC50 for electric eel acetylcholine esterase

Cholinesterase, sequence (P81908 whole entry): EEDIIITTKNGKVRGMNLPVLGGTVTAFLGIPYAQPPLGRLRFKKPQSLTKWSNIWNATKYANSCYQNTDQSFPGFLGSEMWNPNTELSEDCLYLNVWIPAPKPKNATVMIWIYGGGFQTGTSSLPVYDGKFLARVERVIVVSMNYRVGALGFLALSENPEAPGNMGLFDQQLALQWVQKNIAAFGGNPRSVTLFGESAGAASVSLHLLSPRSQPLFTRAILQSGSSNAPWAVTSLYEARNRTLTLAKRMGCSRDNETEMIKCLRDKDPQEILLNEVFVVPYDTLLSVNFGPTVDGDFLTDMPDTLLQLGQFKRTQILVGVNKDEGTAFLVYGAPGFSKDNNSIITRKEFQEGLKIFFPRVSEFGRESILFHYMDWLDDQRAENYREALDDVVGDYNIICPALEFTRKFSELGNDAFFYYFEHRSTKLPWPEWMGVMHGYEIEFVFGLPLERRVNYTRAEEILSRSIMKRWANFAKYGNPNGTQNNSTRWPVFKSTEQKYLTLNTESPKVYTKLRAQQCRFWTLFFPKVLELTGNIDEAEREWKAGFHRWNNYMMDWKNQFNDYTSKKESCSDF
Acetylcholinesterase, sequence (O42275 whole entry): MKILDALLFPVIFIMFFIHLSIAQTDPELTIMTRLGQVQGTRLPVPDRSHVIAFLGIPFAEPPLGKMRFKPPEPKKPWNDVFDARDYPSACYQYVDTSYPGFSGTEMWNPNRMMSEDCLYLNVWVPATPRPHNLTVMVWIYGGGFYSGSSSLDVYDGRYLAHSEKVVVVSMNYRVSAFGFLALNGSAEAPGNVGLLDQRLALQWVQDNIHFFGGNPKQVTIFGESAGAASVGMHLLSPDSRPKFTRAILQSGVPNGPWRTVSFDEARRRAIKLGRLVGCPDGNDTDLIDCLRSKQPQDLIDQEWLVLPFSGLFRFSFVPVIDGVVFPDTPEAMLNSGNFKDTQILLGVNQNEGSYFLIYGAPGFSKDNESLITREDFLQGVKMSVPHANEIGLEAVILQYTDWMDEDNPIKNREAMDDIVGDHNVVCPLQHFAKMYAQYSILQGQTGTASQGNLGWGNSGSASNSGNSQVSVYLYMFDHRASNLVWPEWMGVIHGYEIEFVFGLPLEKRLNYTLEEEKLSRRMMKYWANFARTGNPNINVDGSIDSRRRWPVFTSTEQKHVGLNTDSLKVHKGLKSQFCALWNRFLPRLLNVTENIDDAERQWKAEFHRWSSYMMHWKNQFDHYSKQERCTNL

| SMILES | IC50 (Acetylcholinesterase) [µM] | IC50 (Cholinesterase) [µM] | inhibition [1] | Ratio IC50 [2] | Ratio IC50 [3] |
| --- | --- | --- | --- | --- | --- |
| COc1cc2c(cc1O)C(=O)/C(=C\c1ccncc1)C2 | 49.6 | 247 | – | – | – |
| COc1cc2c(cc1OCCN1CCCCC1)C(=O)/C(=C\c1ccccc1)C2 | 0.0091 | 2.24 | – | – | – |
| COc1cc2c(cc1OCCCCCN1CCCCC1)C(=O)CC2 | 0.361 | 115 | – | – | – |
| COc1cc2c(cc1OCCN1CCCCC1)C(=O)CC2 | 3.11 | 137 | – | – | – |
| CCN(CC)CCCCCCOc1cc2c(cc1OC)C/C(=C/c1ccncc1)C2=O | 0.271 | 13.4 | – | – | – |
| COc1cc2c(cc1OCCCCCN1CCCCC1)C(=O)/C(=C\c1ccncc1)C2 | 0.288 | 9.15 | – | – | – |
| COc1cc2c(cc1OCCN1CCCCC1)C(=O)/C(=C\c1ccncc1)C2 | 0.0018 | 9.5 | Active | 47 | 14 |
| COc1cc2c(cc1OCCCCN1CCCC1)C(=O)/C(=C\c1ccncc1)C2 | 0.156 | 17.5 | – | – | – |
| COc1cc2c(cc1OCCCCCCn1ccnc1)C(=O)/C(=C\c1ccncc1)C2 | 2.87 | 18.5 | – | – | – |
| COc1cc2c(cc1OCCCCCCN1CCCCC1)C(=O)/C(=C\c1ccncc1)C2 | 0.232 | 4.47 | – | – | – |
| COc1cc2c(cc1OCCCCN1CCCCC1)C(=O)/C(=C\c1ccncc1)C2 | 0.081 | 13.8 | – | – | – |
| COc1cc2c(cc1OCCCN1CCCCC1)C(=O)CC2 | 0.916 | 32.9 | – | – | – |
| COc1cc2c(cc1OCCCN1CCCCC1)C(=O)/C(=C\c1ccncc1)C2 | 0.062 | 42.7 | – | – | – |
| CCN(CC)CCCCOc1cc2c(cc1OC)C/C(=C/c1ccncc1)C2=O | 0.205 | 28.9 | – | – | – |
| COc1cc2c(cc1O)C(=O)CC2 | 92 | 258 | – | – | – |
| COc1cc2c(cc1OCCCCCCCCCN1CCCCC1)C(=O)/C(=C\c1ccncc1)C2 | 0.734 | 1.24 | – | – | – |
| COc1cc2c(cc1OCCN1CCCCC1)C(=O)/C(=C\c1ccccn1)C2 | 0.0044 | 7.48 | – | – | – |
| COc1cc2c(cc1OCCN1CCCCC1)C(=O)C(Cc1ccccc1)C2 (centres undefined) | 1.27 | 9.2 | – | – | – |
